According to publication PMC5218480 (PLoS ONE, 2017):

System: MV-4-11 cells
Test: Gene expression microarray analysis (Affymetrix PrimeView) and GSEA
Assay type: cell-based, human
Design: RFU PODN (11730768_x_at) / Fold change /veh PODN (11730768_x_at) / RFU LINC00158 (11744669_a_at) / Fold change /veh LINC00158 (11744669_a_at) / RFU DUSP10 (11751237_a_at) / Fold change /veh DUSP10 (11751237_a_at) / RFU ID3 (11757404_x_at) / Fold change /veh ID3 (11757404_x_at) / RFU PLEKHG5 (11737974_s_at) / Fold change /veh PLEKHG5 (11737974_s_at) / RFU LRRC4B (11730491_at) / Fold change /veh LRRC4B (11730491_at) / RFU GIMAP4 (11747438_a_at) / Fold change /veh GIMAP4 (11747438_a_at) / RFU KRT8 (11758183_x_at) / Fold change /veh KRT8 (11758183_x_at) / RFU CNN1 (11734310_a_at) / Fold change /veh CNN1 (11734310_a_at) / RFU VPS37D (11726825_at) / Fold change /veh VPS37D (11726825_at) / RFU C10orf10 (11716522_x_at) / Fold change /veh C10orf10 (11716522_x_at) / RFU KIR2DL2 /// KIR2DL4 /// KIR2DL5A /// KIR2DL5B /// KIR2DS1 /// KIR2DS2 /// KIR2DS3 /// KIR2DS4 /// KIR3DL3 /// KIR3DL3 /// KIR3DS1 (11738374_at) / Fold change /veh KIR2DL2 /// KIR2DL4 /// KIR2DL5A /// KIR2DL5B /// KIR2DS1 /// KIR2DS2 /// KIR2DS3 /// KIR2DS4 /// KIR3DL3 /// KIR3DL3 /// KIR3DS1 (11738374_at) / RFU C1QL1 (11718748_at) / Fold change /veh C1QL1 (11718748_at) / RFU TMPRSS4 (11747572_a_at) / Fold change /veh TMPRSS4 (11747572_a_at) / RFU HAMP (11756126_x_at) / Fold change /veh HAMP (11756126_x_at) / RFU RNFT2 (11725882_a_at) / Fold change /veh RNFT2 (11725882_a_at) / RFU NR4A2 (11747474_a_at) / Fold change /veh NR4A2 (11747474_a_at) / RFU ABCC12 (11746883_a_at) / Fold change /veh ABCC12 (11746883_a_at) / RFU TMEM136 (11760407_x_at) / Fold change /veh TMEM136 (11760407_x_at) / RFU CLDN22 /// WWC2 (11732394_at) / Fold change /veh CLDN22 /// WWC2 (11732394_at) / RFU HLA-DPB1 (11760878_x_at) / Fold change /veh HLA-DPB1 (11760878_x_at) / RFU SPINT1 (11716480_a_at) / Fold change /veh SPINT1 (11716480_a_at) / RFU GAP43 (11754022_s_at) / Fold change /veh GAP43 (11754022_s_at) / RFU A4GNT (11735810_at) / Fold change /veh A4GNT (11735810_at) / RFU PRB3 (11715151_x_at) / Fold change /veh PRB3 (11715151_x_at) / RFU TUBB4B (11761932_at) / Fold change /veh TUBB4B (11761932_at) / RFU CAPN14 (11732068_a_at) / Fold change /veh CAPN14 (11732068_a_at) / RFU TMCC2 (11721928_a_at) / Fold change /veh TMCC2 (11721928_a_at) / RFU IRGQ (11745062_a_at) / Fold change /veh IRGQ (11745062_a_at) / RFU FAM174B (11720279_a_at) / Fold change /veh FAM174B (11720279_a_at) / RFU TMPRSS4 (11748680_a_at) / Fold change /veh TMPRSS4 (11748680_a_at) / RFU FAM212B (11763350_a_at) / Fold change /veh FAM212B (11763350_a_at) / RFU PLEKHG5 (11743358_a_at) / Fold change /veh PLEKHG5 (11743358_a_at) / RFU ZSCAN30 (11745921_a_at) / Fold change /veh ZSCAN30 (11745921_a_at) / RFU CMKLR1 (11741424_a_at) / Fold change /veh CMKLR1 (11741424_a_at) / RFU LOC101060620 /// MAPK8IP1 (11723275_at) / Fold change /veh LOC101060620 /// MAPK8IP1 (11723275_at) / RFU SPTSSB (11747773_x_at) / Fold change /veh SPTSSB (11747773_x_at) / RFU PRSS12 (11739890_at) / Fold change /veh PRSS12 (11739890_at) / RFU BIN1 (11741810_x_at) / Fold change /veh BIN1 (11741810_x_at) / RFU WNT11 (11732464_a_at) / Fold change /veh WNT11 (11732464_a_at) / RFU C10orf10 (11716521_a_at) / Fold change /veh C10orf10 (11716521_a_at) / RFU C5orf56 (11738089_at) / Fold change /veh C5orf56 (11738089_at) / RFU CYB561 (11721691_x_at) / Fold change /veh CYB561 (11721691_x_at) / RFU ANKRD19P (11752326_a_at) / Fold change /veh ANKRD19P (11752326_a_at) / RFU OR2T12 /// OR2T33 /// OR2T8 (11738714_s_at) / Fold change /veh OR2T12 /// OR2T33 /// OR2T8 (11738714_s_at) / RFU VCAN (11748164_a_at) / Fold change /veh VCAN (11748164_a_at) / RFU JSRP1 (11732532_at) / Fold change /veh JSRP1 (11732532_at) / RFU KRTAP10-11 (11738290_x_at) / Fold change /veh KRTAP10-11 (11738290_x_at) / RFU MYO3A (11730013_a_at) / Fold change /veh MYO3A (11730013_a_at) / RFU EBF3 (11725865_a_at) / Fold change /veh EBF3 (11725865_a_at) / RFU CAMK2N1 (11719241_x_at) / Fold change /veh CAMK2N1 (11719241_x_at) / RFU C5orf56 (11738088_a_at) / Fold change /veh C5orf56 (11738088_a_at) / RFU OLFML3 (11715873_a_at) / Fold change /veh OLFML3 (11715873_a_at) / RFU LOC100653217 /// NTM (11731650_a_at) / Fold change /veh LOC100653217 /// NTM (11731650_a_at) / RFU MAPK11 (11762145_a_at) / Fold change /veh MAPK11 (11762145_a_at) / RFU FIZ1 (11724087_x_at) / Fold change /veh FIZ1 (11724087_x_at) / RFU OASL (11726364_x_at) / Fold change /veh OASL (11726364_x_at) / RFU SOX15 (11748057_x_at) / Fold change /veh SOX15 (11748057_x_at) / RFU CD79A (11719716_a_at) / Fold change /veh CD79A (11719716_a_at) / RFU HIST1H1D (11736915_at) / Fold change /veh HIST1H1D (11736915_at) / RFU CASKIN2 (11723855_a_at) / Fold change /veh CASKIN2 (11723855_a_at) / RFU LOC730098 (11760151_x_at) / Fold change /veh LOC730098 (11760151_x_at) / RFU OR4N2 (11742367_at) / Fold change /veh OR4N2 (11742367_at) / RFU PRRT2 (11749266_a_at) / Fold change /veh PRRT2 (11749266_a_at) / RFU SNX32 (11753110_a_at) / Fold change /veh SNX32 (11753110_a_at) / RFU CDHR5 (11726645_a_at) / Fold change /veh CDHR5 (11726645_a_at) / RFU RCAN1 (11760418_a_at) / Fold change /veh RCAN1 (11760418_a_at) / RFU FAM167A (11723789_a_at) / Fold change /veh FAM167A (11723789_a_at) / RFU FAM26E (11764081_at) / Fold change /veh FAM26E (11764081_at) / RFU ISYNA1 (11749810_s_at) / Fold change /veh ISYNA1 (11749810_s_at) / RFU ACY1 (11761880_at) / Fold change /veh ACY1 (11761880_at) / RFU 11764098_at / Fold change /veh 11764098_at / RFU SAMD14 (11745864_x_at) / Fold change /veh SAMD14 (11745864_x_at) / RFU NPB (11741838_a_at) / Fold change /veh NPB (11741838_a_at) / RFU TMPRSS6 (11731388_a_at) / Fold change /veh TMPRSS6 (11731388_a_at) / RFU KRTAP10-2 (11738614_at) / Fold change /veh KRTAP10-2 (11738614_at) / RFU ARHGAP8 /// PRR5-ARHGAP8 (11727945_x_at) / Fold change /veh ARHGAP8 /// PRR5-ARHGAP8 (11727945_x_at) / RFU KRTAP5-7 /// NADSYN1 (11734609_at) / Fold change /veh KRTAP5-7 /// NADSYN1 (11734609_at) / RFU RASL12 (11751679_a_at) / Fold change /veh RASL12 (11751679_a_at) / RFU CDKN2B (11736163_a_at) / Fold change /veh CDKN2B (11736163_a_at) / RFU PRF1 (11729649_at) / Fold change /veh PRF1 (11729649_at) / RFU, ZNF638 /// ZNF638-IT1 / Fold change vs veh, ZNF638 /// ZNF638-IT1 / RFU, PANK3 / Fold change vs veh, PANK3 / RFU, SH3YL1 / Fold change vs veh, SH3YL1 / RFU, ZEB2 / Fold change vs veh, ZEB2 / RFU, NRIP1 / Fold change vs veh, NRIP1 / RFU, PTTG1IP / Fold change vs veh, PTTG1IP / RFU, CAPN2 / Fold change vs veh, CAPN2 / RFU, MED14 / Fold change vs veh, MED14 / RFU, SNORA58 / Fold change vs veh, SNORA58 / RFU, C1orf63 / Fold change vs veh, C1orf63 / RFU, LRRFIP1 / Fold change vs veh, LRRFIP1 / RFU, NDUFAF7 / Fold change vs veh, NDUFAF7 / RFU, SLC12A2 / Fold change vs veh, SLC12A2 / RFU, IBTK / Fold change vs veh, IBTK / RFU, ESF1 / Fold change vs veh, ESF1 / Fold change vs veh, TMEM50B / RFU, TAOK1 / Fold change vs veh, TAOK1 / RFU, ACBD3 / Fold change vs veh, ACBD3 / RFU, TMA16 / Fold change vs veh, TMA16 / RFU, RWDD3 / Fold change vs veh, RWDD3 / RFU, BCAT1 / Fold change vs veh, BCAT1 / RFU, EDEM3 / Fold change vs veh, EDEM3 / RFU, TMEM33 / Fold change vs veh, TMEM33 / RFU, WDR75 / Fold change vs veh, WDR75 / RFU, AHCTF1 / Fold change vs veh, AHCTF1 / RFU, TFRC / Fold change vs veh, TFRC / RFU, ZDHHC17 / Fold change vs veh, ZDHHC17 / RFU, NOM1 / Fold change vs veh, NOM1 / RFU, ARL8B / Fold change vs veh, ARL8B / RFU, ZBTB11 / Fold change vs veh, ZBTB11 / RFU, TAMM41 / Fold change vs veh, TAMM41 / RFU, KIAA1704 /// LOC100996395 / Fold change vs veh, KIAA1704 /// LOC100996395 / RFU, ING1 / Fold change vs veh, ING1 / RFU, TRMT61B / Fold change vs veh, TRMT61B / RFU, FUBP3 / Fold change vs veh, FUBP3 / RFU, TP53 / Fold change vs veh, TP53 / RFU, TNKS2 / Fold change vs veh, TNKS2 / RFU, ZFP14 / Fold change vs veh, ZFP14 / RFU, ACTR2 / Fold change vs veh, ACTR2 / RFU, PPP3R1 / Fold change vs veh, PPP3R1 / RFU, PIK3R1 / Fold change vs veh, PIK3R1 / RFU, HNRNPA1 / Fold change vs veh, HNRNPA1 / RFU, RNF170 / Fold change vs veh, RNF170 / RFU, ZNF28 / Fold change vs veh, ZNF28 / RFU, RNGTT / Fold change vs veh, RNGTT / RFU, OGT / Fold change vs veh, OGT / RFU, BRD1 / Fold change vs veh, BRD1 / RFU, MARS / Fold change vs veh, MARS / RFU, ZNF655 / Fold change vs veh, ZNF655 / RFU, FAHD1 / Fold change vs veh, FAHD1 / RFU, BDP1 / Fold change vs veh, BDP1 / RFU, LRRCC1 / Fold change vs veh, LRRCC1 / RFU, ARID1A / Fold change vs veh, ARID1A / RFU, ZNF146 / Fold change vs veh, ZNF146 / RFU, ZNF330 / Fold change vs veh, ZNF330 / RFU, GPN3 / Fold change vs veh, GPN3 / RFU, C9orf123 / Fold change vs veh, C9orf123 / RFU, N4BP2L2 / Fold change vs veh, N4BP2L2 / RFU, ARFIP1 / Fold change vs veh, ARFIP1 / RFU, FAM179B / Fold change vs veh, FAM179B / RFU, BCL10 / Fold change vs veh, BCL10 / RFU, UHRF1BP1L / Fold change vs veh, UHRF1BP1L / RFU, BET1 / Fold change vs veh, BET1 / RFU, CNOT2 / Fold change vs veh, CNOT2 / RFU, ZNF268 / Fold change vs veh, ZNF268 / Fold change vs veh, ZNF507 / RFU, DGCR2 / Fold change vs veh, DGCR2 / RFU, WDSUB1 / Fold change vs veh, WDSUB1 / Fold change vs veh, HSP90B1 /// MIR3652 / RFU, ADSS / Fold change vs veh, ADSS / RFU, GK / Fold change vs veh, GK / RFU, ZNF148 / Fold change vs veh, ZNF148 / RFU, TAF9 / Fold change vs veh, TAF9 / RFU, SLC1A5 / Fold change vs veh, SLC1A5 / RFU, SLMO2 / Fold change vs veh, SLMO2 / RFU, ABCC4 / Fold change vs veh, ABCC4 / RFU, LOC101060439 /// RAP1B / Fold change vs veh, LOC101060439 /// RAP1B / RFU, RFX7 / Fold change vs veh, RFX7 / RFU, GTPBP10 / Fold change vs veh, GTPBP10 / RFU, CNEP1R1 / Fold change vs veh, CNEP1R1 / RFU, BIVM-ERCC5 /// ERCC5 / Fold change vs veh, BIVM-ERCC5 /// ERCC5 / RFU, ILF3 / Fold change vs veh, ILF3 / RFU 11762660_at / Fold change /veh 11762660_at / RFU VCAN (11757783_s_at) / Fold change /veh VCAN (11757783_s_at) / RFU DDX43 (11728927_at) / Fold change /veh DDX43 (11728927_at) / RFU KRT8 (11758188_x_at) / Fold change /veh KRT8 (11758188_x_at) / RFU NKD1 (11759106_at) / Fold change /veh NKD1 (11759106_at) / RFU SRD5A1 (11742802_a_at) / Fold change /veh SRD5A1 (11742802_a_at) / RFU TPSAB1 /// TPSB2 (11721975_s_at) / Fold change /veh TPSAB1 /// TPSB2 (11721975_s_at) / RFU GSTM3 (11746129_a_at) / Fold change /veh GSTM3 (11746129_a_at) / RFU IL23R (11737362_x_at) / Fold change /veh IL23R (11737362_x_at) / RFU TMEM51 (11727254_a_at) / Fold change /veh TMEM51 (11727254_a_at) / RFU PIWIL2 (11732686_x_at) / Fold change /veh PIWIL2 (11732686_x_at) / RFU ORM1 (11744905_x_at) / Fold change /veh ORM1 (11744905_x_at) / RFU CCDC152 (11743942_at) / Fold change /veh CCDC152 (11743942_at) / RFU ECM1 (11717891_a_at) / Fold change /veh ECM1 (11717891_a_at) / RFU IL23R (11748794_a_at) / Fold change /veh IL23R (11748794_a_at) / RFU TNFAIP8L3 (11732012_x_at) / Fold change /veh TNFAIP8L3 (11732012_x_at) / RFU MBOAT4 (11741988_at) / Fold change /veh MBOAT4 (11741988_at) / RFU 11764193_at / Fold change /veh 11764193_at / RFU TMEM53 (11763286_at) / Fold change /veh TMEM53 (11763286_at) / RFU MAGEB2 (11727129_at) / Fold change /veh MAGEB2 (11727129_at) / RFU TMEM200A (11744735_a_at) / Fold change /veh TMEM200A (11744735_a_at) / RFU CCDC152 (11751479_a_at) / Fold change /veh CCDC152 (11751479_a_at) / RFU FAM211A (11726209_a_at) / Fold change /veh FAM211A (11726209_a_at) / RFU RGS16 (11746705_a_at) / Fold change /veh RGS16 (11746705_a_at) / RFU VCAN (11755009_s_at) / Fold change /veh VCAN (11755009_s_at) / RFU RHOB (11743442_s_at) / Fold change /veh RHOB (11743442_s_at) / RFU RGS16 (11720943_a_at) / Fold change /veh RGS16 (11720943_a_at) / RFU RGS16 (11720944_at) / Fold change /veh RGS16 (11720944_at) / RFU, VPS4B / Fold change vs veh, VPS4B / RFU, CREB1 / Fold change vs veh, CREB1 / RFU, DNAJC13 / Fold change vs veh, DNAJC13 / RFU, GNAQ / Fold change vs veh, GNAQ / RFU, CDK5R1 / Fold change vs veh, CDK5R1 / RFU, ZRANB3 / Fold change vs veh, ZRANB3 / RFU, CUL4A / Fold change vs veh, CUL4A / RFU, CCNY / Fold change vs veh, CCNY / RFU, UFL1 / Fold change vs veh, UFL1 / RFU, COG3 / Fold change vs veh, COG3 / RFU, DIAPH2 / Fold change vs veh, DIAPH2 / RFU, SKA2 / Fold change vs veh, SKA2 / RFU, AFF3 / Fold change vs veh, AFF3 / RFU, LMF1 / Fold change vs veh, LMF1 / RFU, IPO11 / Fold change vs veh, IPO11 / RFU, DFFB / Fold change vs veh, DFFB / RFU, FOXP1 / Fold change vs veh, FOXP1 / RFU, CARD8 / Fold change vs veh, CARD8 / RFU, STRN3 / Fold change vs veh, STRN3 / RFU, ADK / Fold change vs veh, ADK / RFU, RASSF2 / Fold change vs veh, RASSF2 / RFU, WIPF1 / Fold change vs veh, WIPF1 / RFU, LARP1B / Fold change vs veh, LARP1B / RFU, RASA1 / Fold change vs veh, RASA1 / RFU, RB1 / Fold change vs veh, RB1 / RFU, PPFIA1 / Fold change vs veh, PPFIA1 / RFU, MAT2A / Fold change vs veh, MAT2A / RFU, CCT5 / Fold change vs veh, CCT5 / RFU, WDR92 / Fold change vs veh, WDR92 / RFU, CUX1 / Fold change vs veh, CUX1 / RFU, TTC7A / Fold change vs veh, TTC7A / RFU, TMEM135 / Fold change vs veh, TMEM135 / RFU, DEPTOR / Fold change vs veh, DEPTOR / RFU, CPM / Fold change vs veh, CPM / RFU, DNAJB6 / Fold change vs veh, DNAJB6 / RFU, CACNA2D3 / Fold change vs veh, CACNA2D3 / RFU, DTX4 / Fold change vs veh, DTX4 / RFU, TFCP2 / Fold change vs veh, TFCP2 / RFU, GMCL1 /// GMCL1P1 / Fold change vs veh, GMCL1 /// GMCL1P1 / RFU, AEBP2 / Fold change vs veh, AEBP2 / RFU, SNHG1 /// SNORD22 /// SNORD25 /// SNORD26 /// SNORD27 /// SNORD28 /// SNORD29 /// SNORD31 / Fold change vs veh, SNHG1 /// SNORD22 /// SNORD25 /// SNORD26 /// SNORD27 /// SNORD28 /// SNORD29 /// SNORD31 / Fold change (Aza/veh), C12orf56 (ProbeSet 11735607_a_at) / Fold change (ACY-1035/veh), C12orf56 (ProbeSet 11735607_a_at) / Fold change (Aza/veh), FGFR1OP (ProbeSet 11751329_s_at) / Fold change (ACY-1035/veh), FGFR1OP (ProbeSet 11751329_s_at) / Fold change (Aza/veh), VPS36 (ProbeSet 11739960_a_at) / Fold change (ACY-1035/veh), VPS36 (ProbeSet 11739960_a_at) / RFU SYPL1 (11715823_x_at) / Fold change /veh SYPL1 (11715823_x_at) / RFU IGFBP7 (11715501_s_at) / Fold change /veh IGFBP7 (11715501_s_at) / RFU REEP3 (11722064_at) / Fold change /veh REEP3 (11722064_at) / RFU IGLL1 (11728026_x_at) / Fold change /veh IGLL1 (11728026_x_at): dose or concentration left out as unconfirmed
Conditions: ProbeSet 11753055_s_at; LIST B

SMILES: Nc1ccc(-c2cccs2)cc1NC(=O)c1ccc2c(c1)cc(C1CC1)n2CCN1CCOCC1 [ACY-1035]
- Fold change vs veh, LOC101060439 /// RAP1B: 0.99
